US5464617A, “β-lactam compounds” (Hoffmann-La Roche Inc., priority 1994, dated 1995)
Converted amounts (≈) assume the structure as drawn. Where a name gives a salt, the structure may show the parent alone.

system: E. coli 1346; experiment: Antibacterial activity of the products per se, serial dilution method in liquid medium (Test E); type: cell-based; conditions: Table 3; product per se, liquid medium
Text: The antibacterial activity of the products per se is illustrated on the basis of Table 3 hereinafter, the minimum inhibitory concentration […] in vitro against E. coli 1346 being determined using the serial dilution method in liquid medium: […]

Compound | MIC E. coli 1346 [mg/L]
Cc1nnc(SC2=C(C(=O)O)N3C(=O)[C@@H]4[C@H]3[C@H](C2)CN4C(=O)Nc2ccc(O)cc2)s1 [3(j), (1aS,3aR,6bR)-2-(4-Hydroxyphenylcarbamoyl)-5-(5-methyl-1,3,4-thiadiazol-2-ylsulphanyl)-1-oxo-1a,2,3,3a,4,6b-hexahydro-1H-2,6a-diazacyclobut[cd]indene-6-carboxylic acid sodium salt] | 32
CS(=O)(=O)OC1=C(C(=O)[O-])N2C(=O)[C@@H]3[C@H]2[C@H](C1)CN3C(=O)C[n+]1cccc(C(N)=O)c1 [11(a), (1 aS,3aR,6bR)-2-(3-Carbamoyl-pyridin-1-ylioacetyl)-5-methylsulphonyloxy-1-oxo-1a,2,3,3a,4,6b-hexahydro-1H-2,6a-diazacyclobut[cd]indene-6-carboxylate] | 32 (≈ 71 µM)
Cn1nnnc1SC1=C(C(=O)O)N2C(=O)[C@H]3NC[C@@H](C1)[C@H]32 [Example 2(a), (1aS,3aR,6bR)-5-(1-Methyl-1H-tetrazol-5-ylsulphanyl)-1-oxo-1a,2,3,3a,4,6b-hexahydro-1H-2,6a-diazacyclobut[cd]indene-6-carboxylic acid trifluoroacetate] | 4
Cn1nnnc1SCC1=C(C(=O)O)N2C(=O)[C@H]3NC[C@@H](C1)[C@H]32 [Example 15, (1aS,3aR,6bR)-5-(1-Methyl-1H-tetrazol-5-ylsulphanylmethyl)-1-oxo-1a,2,3,3a,4,6b-hexahydro-1H-2,6a-diazacyclobut[cd]indene-6-carboxylic acid trifluoroacetate] | 2
CC(=O)N1C[C@H]2CC(CSc3nnnn3C)=C(C(=O)O)N3C(=O)[C@@H]1[C@@H]23 [Example 19(a), (1aS,3aR,6bR)-2-Acetyl-5-(1-methyl-1H-tetrazol-5-ylsulphahylmethyl)-1-oxo-1a,2,3,3a,4,6b-hexahydro-1H-2,6a-diazacyclobut[cd]indene-6-carboxylic acid sodium salt] | 0.5

system: Citrobacter freundii 1982; experiment: MIC in vitro of a 1:4 combination of ceftriaxone with a compound of formula I (Test D); type: cell-based; conditions: Table 2; 1:4 combination of ceftriaxone with the compound
Description: The minimum inhibitory concentration in vitro ([…]) of a 1:4 combination of ceftriaxone with a compound of formula I against Citrobacter freundii 1982 was measured and compiled in Table 2 hereinafter.

Compound | MIC C. freundii 1982 [mg/L]
Cn1nnnc1SC1=C(C(=O)O)N2C(=O)[C@@H]3[C@H]2[C@H](C1)CN3C(=O)NC1CCSC1=O (mixture of isomers) [3(f), (1aS,3aR,6bR)-5-(1-Methyl-1H-tetrazol-5-ylsulphanyl)-1-oxo-2-[(R)- and [(S)-2-oxo-tetrahydro-thien-3-ylcarbamoyl]-1a,2,3,3a,4,6b-hexahydro-1H-2,6a-diazacyclobut[cd]indene-6-carboxylic acid sodium salt] | 0.06
Cn1nnnc1SC1=C(C(=O)O)N2C(=O)[C@@H]3[C@H]2[C@H](C1)CN3C(=O)NC1CCS(=O)(=O)C1 (mixture of isomers) [3(i), (1aS,3aR,6bR)-2-[(R)- and [(S)-1,1-dioxo-tetrahydrothien-3-ylcarbamoyl)-5-(1-methyl-1H-tetrazol-5-ylsulphanyl)-1-oxo-1a,2,3,3a,4,6b-hexahydro-1H-2,6a-diazacyclobut[cd]indene-6-carboxylic acid sodium salt] | 0.06
Cn1nnnc1SC1=C(C(=O)O)N2C(=O)[C@@H]3[C@H]2[C@H](C1)CN3C(=O)Nc1ccc(C(N)=O)cc1 [3(b), (1aS,3aR,6bR)-2-(4-Carbamoyl-phenylcarbamoyl)-5-(1-methyl-1H-tetrazol-5-ylsulphanyl)-1-oxo-1a,2,3,3a,4,6b-hexahydro-1H-2,6a-diazacyclobut[cd]indene-6-carboxylic acid sodium salt] | 0.25
Cn1nnnc1SC1=C(C(=O)O)N2C(=O)[C@@H]3[C@H]2[C@H](C1)CN3C(=O)N[C@H]1CCNC1=O [3(c), (1aS,3aR,6bR)-2-[(S)-2-Oxo-pyrrolidin-3-ylcarbamoyl]-5-(1-methyl-1H-tetrazol-5-ylsulphanyl)-1-oxo-1a,2,3,3a,4,6b-hexahydro-1H-2,6a-diazacyclobut[cd]indene-6-carboxylic acid sodium salt] | 0.25
Cc1nnc(SC2=C(C(=O)O)N3C(=O)[C@@H]4[C@H]3[C@H](C2)CN4C(=O)Nc2ccc(C(N)=O)cc2)s1 [3(k), (1aS,3aR,6bR)-2-(4-Carbamoyl-phenylcarbamoyl)-5-(5-methyl-1,3,4-thiadiazol-2-ylsulphanyl)-1-oxo-1a,2,3,3a,4,6b-hexahydro-1H-2,6a-diazacyclobut[cd]indene-6-carboxylic acid sodium salt] | 0.5
NC(=O)c1ccc(NC(=O)N2C[C@H]3CC(Sc4nnc(N)s4)=C(C(=O)O)N4C(=O)[C@@H]2[C@@H]34)cc1 [3(m), (1aS,3aR,6bR)-5-(5-Amino1,3,4-thiadiazol-2-ylsulphanyl)-2-(4-carbamoyl-amino-phenylcarbamoyl)-1-oxo-1a,2,3,3a,4,6b-hexahydro-1H-2,6a-diazacyclobut]cd]indene-6-carboxylic acid sodium salt] | 0.25
CS(=O)(=O)OC1=C(C(=O)O)N2C(=O)[C@@H]3[C@H]2[C@H](C1)CN3C(=O)N[C@H]1CCNC1=O [9(e), (1aS,3aR,6bR)-5-Methylsulphonyloxy-1-oxo-2-[(S)-2-oxo-pyrrolidin-3-ylcarbamoyl]-1a,2,3,3a,4,6b-hexahydro-1H-2,6a-diazacyclobut[cd]indene-6-carboxylicacid sodium salt] | 0.25
CC(C)(C)OC(=O)N1C[C@H]2CC(OS(C)(=O)=O)=C(C(=O)O)N3C(=O)[C@@H]1[C@@H]23 [10(a), (1aS,3aR,6bR)-2-t-Butoxycarbonyl-5-methylsulphonyloxy-1-oxo-1a,2,3,3a,4,6b-hexahydro-1H-2,6a-diazacyclobut[cd]-indene-6-carboxylic acid sodium salt] | 1
Cc1ccc(S(=O)(=O)OC2=C(C(=O)O)N3C(=O)[C@@H]4[C@H]3[C@H](C2)CN4C(=O)OC(C)(C)C)cc1 [10(d), (1aS,3aR,6bR)-2-t-Butoxycarbonyl-5-(4-methyl-phenylsulphonyloxy)-1-oxo-1a,2,3,3a,4,6b-hexahydro-1H-2,6a-diazacyclobut[cd]indene-6-carboxylic acid sodium salt] | 8
COC(=O)CC1=C(C(=O)O)N2C(=O)[C@@H]3[C@H]2[C@H](C1)CN3C(=O)Nc1ccc(O)cc1 [13(b), (1aS,3aR,6bR)-2-(4-Hydroxy-phenylcarbamoyl)-5-methoxycarbonylmethyl-1-oxo-1a,2,3,3a,4,6b-hexahydro-1H-2,6a-diazacyclobut[cd]indene-6-carboxylic add sodium salt] | 0.25
O=C([O-])C1=C(C[n+]2ccccc2)C[C@@H]2CN(C(=O)Nc3ccc(O)cc3)[C@@H]3C(=O)N1[C@H]23 [23(a)] | 1
O=C([O-])C1=C(C[n+]2ccccc2)C[C@@H]2CN(C(=O)NCc3cc(O)no3)[C@@H]3C(=O)N1[C@H]23 [23(b), (1aS,3aR,6bR)-2-(3-Hydroxy-isoxazol-5-ylmethylcarbamoyl)-1-oxo-5-(pyridin-1-yliomethyl)-1a,2,3,3a,4,6b-hexahydro-1H-2,6a-diazacyclobut[cd]indene-6-carboxylate] | 1
NC(=O)c1ccc(NC(=O)N2C[C@H]3CC(C[n+]4ccccc4)=C(C(=O)[O-])N4C(=O)[C@@H]2[C@@H]34)cc1 [23(c), (1aS,3aR,6bR)-2-(4-Carbamoyl-phenylcarbamoyl)-1-oxo-5-(pyridin-1-yliomethyl)-1a,2,3,3a,4,6b-hexahydro-1H-2,6a-diazacyclobut[cd]indene-6-carboxylate] | 0.25
O=C(C[n+]1ccccc1)Nc1nnc(SC2=C(C(=O)[O-])N3C(=O)[C@@H]4[C@H]3[C@H](C2)CN4C(=O)Nc2ccc(O)cc2)s1 [Example 5, (1aS,3aR,6bR)-2-(4-Hydroxy-phenylcarbamoyl)-1-oxo-5-[5-(pyridin-1-ylioacetylamino)-1,3,4-thiadiazol-2-ylsulphanyl]-1a,2,3,3a,4,6b-hexahydro-1H-2,6a-diazacyclobut[cd]indene-6-carboxylic acid] | 2
C[n+]1ccc(SCC2=C(C(=O)[O-])N3C(=O)[C@@H]4[C@H]3[C@H](C2)CN4C(=O)Nc2ccc(C(N)=O)cc2)cc1 [Example 21, (1aS,3aR,6bR)-2-(4-Carbamoyl-phenylcarbamoyl)-5-(1-methylpyridin-1-yliosulphanylmethyl)-1-oxo-1a,2,3,3a,4,6b-hexahydro-1H-2,6a-diazacyclobut[cd]indene-6-carboxylate] | 0.5
CC(=O)OCC1=C(C(=O)O)N2C(=O)[C@@H]3[C@H]2[C@H](C1)CN3C(=O)Nc1ccc(O)cc1 [Example 25, (1aS,3aR,6bR)-5-Acetoxymethyl-2-(4-hydroxy-phenylcarbamoyl)-1-oxo-1a,2,3,3a,4,6b-hexahydro-1H-2,6a-diazacyclobut[cd]indene-6-carboxylic acid sodium salt] | 0.25

same assay, conditions: Table 4; test D, 1:4 combination of ceftriaxone with the compound

Compound | MIC C. freundii 1982 (D) [mg/L]
Cn1nnnc1SCC1=C(C(=O)O)N2C(=O)[C@@H]3[C@H]2[C@H](C1)CN3C(=O)NCc1cccs1 [18(g), (1aS,3aR,6bR)-1-Oxo-5-(1-methyl-1H-tetrazol-5-yl-sulphanylmethyl)-2-thiophen-2-ylmethylcarbamoyl-1a,2,3,3a,4,6b-hexahydro-1H-2,6a-diazacyclobut[cd]indene-6-carboxylic acid sodium salt] | 0.5
Cn1nnnc1SCC1=C(C(=O)O)N2C(=O)[C@@H]3[C@H]2[C@H](C1)CN3S(=O)(=O)C(F)(F)F [19(f), (1aS,3aR,6bR)-5-(1-Methyl-1H-tetrazol-5-ylsulphanylmethyl)-1-oxo-2-trifluormethylsulphonyl-1a,2,3,3a,4,6b-hexahydro-1H-2,6a-diazacyclobut[cd]indene-6-carboxylic acid sodium salt] | 4
COC(=O)CN1C[C@H]2CC(CSc3nnnn3C)=C(C(=O)O)N3C(=O)[C@@H]1[C@@H]23 [61(a), (1aS,3aR,6bR)-2-Methoxycarbonylmethyl-5-(1-methyl-1H-tetrazol-5-ylsulphanylmethyl)-1-oxo-1a,2,3,3a,4,6b-hexahydro-1H-2,6a-diazacyclobut[cd]indene-6-carboxylic acid] | 0.25
